Measurements from patent US20250333442A1, “NOVEL CELL-PERMEABLE PEPTIDE AND USE THEREOF” (AJOU UNIVERSITY INDUSTRY-ACADEMIC COOPERATION FOUNDATION, priority 2021, published 2025).

Key:
[1] = test system: splenocytes; assay: Splenocyte permeability by confocal microscopy; assay type: cell-based; conditions: 1 μg/mL fluorescent-labeled peptide, ICR mouse splenocytes, culture times 1, 4 and 24 hours
Procedure: To determine the cell permeability of F1 peptides, 1 μg/mL of fluorescent-labeled F1 and F2 peptides were treated to cultures of splenocytes isolated from 4-week-old ICR mice, followed by culture for 24 hours. Afterwards, intracellular fluorescence expression over culture times (1, 4 and 24 hours) was observed by confocal microscopy. The untreated group with no peptide treatment involved was used as a control, alongside with a GFP peptide ([…]) treated group without cell permeability and a scramble D treated group (negative control).

[2] = test system: peritoneal macrophages; assay: Peritoneal macrophage permeability by confocal microscopy; assay type: cell-based; conditions: 1 μg/mL fluorescent-labeled peptide, ICR mouse peritoneal macrophages, culture times 1, 4 and 24 hours
Procedure: To determine the cell permeability of F1 peptides, 1 μg/mL of fluorescent-labeled F1 and F2 peptides was treated to cultures of peritoneal macrophages isolated from 4-week-old ICR mice, followed by culture for 24 hours. Afterwards, intracellular fluorescence expression over culture times (1, 4 and 24 hours) was observed by confocal microscopy.

[3] = test system: skin (epidermis) tissues; assay: Skin tissue permeability by confocal microscopy; assay type: in vivo, mouse; conditions: for fluorescence expression in tissues: 1 μg/mL applied to mouse leg skin with cotton swab, cryosection; for difference in fluorescence expression with or without scratches: normal versus needle-scratched skin, 1 μg/mL, 1˜2 hours
Procedure: To identify the skin tissue permeability of the F1 peptide, the left leg of 4-week-old ICR mice was left unscratched, and the right leg was scratched with a needle. Afterwards, 1 μg/mL of fluorescent-labeled F1 and F2 peptides was applied to both legs with cotton swabs respectively, and after 1˜2 hours, skin (epidermis) tissues were collected, cryosectioned, and observed under confocal microscopy.

[4] = test system: lymph node cells; assay: Cell permeability via flow cytometry, lymph node cells; assay type: cell-based, mouse; conditions: for positive cell frequency (of entire cells): 1 μg/mL
Procedure: (§1) To determine whether the F1 peptide has entered the cell by penetrating the plasma membrane, splenocytes and lymph node cells were isolated from 4-week-old ICR mice, cultured for 1 hour, treated with 1 μg/mL of fluorescent-labeled F1 and F2 peptides, respectively, and then cultured for 48 hours. Flow cytometry was then used to analyze a frequency of fluorescent-labeled cells over culture time (1, 4, 24, and 48 hours) to determine the frequency of cells into which the peptide moved.

[5] = test system: splenocytes; assay: Cell permeability of peptides with SEQ ID NOS: 22 to 30 via flow cytometry; assay type: cell-based, mouse; conditions: splenocytes of 8-week-old ICR mice, 1 μg/mL, 24 and 48 hours
Procedure: To determine whether the F1 peptide enables penetration into cells even if a peptide without cell permeability is linked in the middle of any amino acid sequence, splenocytes were isolated from ICR 8-week-old mice and cultured for 1 hour. Afterwards, 1 μg/mL of fluorescent-labeled peptides (SEQ ID NOS: 22 to 30) was treated to cells respectively, followed by culture for 48 hours. Afterwards, flow cytometry was used to analyze the frequency of fluorescent-labeled cells over the culture time (24 and 48 hours) to determine the frequency of cells into which the peptide moved. […] A total of 4 mice were used, with the number of mice per experimental group (Group) set to 2 and the experiment repeated twice.

[6] = test system: splenocytes; assay: Cell permeability via flow cytometry, splenocytes; assay type: cell-based, mouse; conditions: culture times 1, 4, 24 and 48 hours
Procedure: as §1

[7] = tissue collected after 1˜2 hours, confocal microscopy

| Substance | intracellular fluorescence expression [1] | intracellular fluorescence expression [2] | fluorescence expression in tissues [3, 7] | difference in fluorescence expression with or without scratches [3] | further results |
| --- | --- | --- | --- | --- | --- |
| GCCGEIV [Peptide F1] | showed fluorescence expression in splenocytes | showed fluorescence expression in peritoneal macrophages | showed fluorescence expression in tissues | no significant difference | positive cell frequency (of entire cells) ([4]; over 4 hours): about 40% |
| GCCGEIVDDDDDDDD [Peptide F1D8] | – | – | – | – | degree of penetration of the D peptide into the cell compared with R8D control [5]: superior to that of the R8 peptide; penetration of the DDDDDDDD peptide inside the cell compared with cTATD control [5]: at a level similar to that of the cTAT peptide |
| GCDDDDDDDDCGEIV [Peptide F2] | showed fluorescence expression in splenocytes | showed fluorescence expression in peritoneal macrophages | showed fluorescence expression in tissues | no significant difference | fluorescence expression in hair follicles ([3]; 1 μg/mL applied to mouse leg skin, tissue collected after 1˜2 hours, confocal microscopy): strong fluorescence expression especially in hair follicles; positive cell frequency (of entire cells) ([4]; over 48 hours): about 60% |
| HKFSVSGEGEGDATC [GFP peptide, GFP peptide without cell permeability, used as control, reference compound] | – | – | – | – | intracellular fluorescence expression [6]: intracellular fluorescence expression was not observed; intracellular fluorescence expression ([4]; culture times 1, 4, 24 and 48 hours): intracellular fluorescence expression was not observed |
